Results from PubChem BioAssay AID2060904 (Molecular Pharmacology Branch, DTP, NCI, 2025).

System: 349418-098-R-PDC complex spheroid viability
Assay: Anticancer human tumor 349418-098-R-PDC patient-derived lung adenocarcinoma cell line growth inhibition [RAS]
Conditions: for IC50: curve of first compound; for viability, T/C: stronger effect = lower value; active means viability on the fitted dose curve at most 10% of control; inactive means the rest
Summary of the method: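 Multi-cell-type spheroids: tumor cells plus HUVEC endothelial cells and mesenchymal stem cells. RAS-pathway inhibitors were combined with targeted agents, each dosed in half-log steps down from clinical Cmax, or from 10 microM when Cmax was unknown.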

[1] = second compound 0.0316 µM, first compound 0.0316 µM
[2] = second compound 0.0316 µM, first compound 0.1 µM
[3] = second compound 0.0316 µM, first compound 0.316 µM
[4] = second compound 0.0316 µM, first compound 1 µM
[5] = second compound 0.1 µM, first compound 0.0316 µM
[6] = second compound 0.1 µM, first compound 0.1 µM
[7] = second compound 0.1 µM, first compound 0.316 µM
[8] = second compound 0.1 µM, first compound 1 µM
[9] = second compound 0.316 µM, first compound 0.0316 µM
[10] = second compound 0.316 µM, first compound 0.1 µM
[11] = second compound 0.316 µM, first compound 0.316 µM
[12] = second compound 0.316 µM, first compound 1 µM
[13] = second compound 1 µM, first compound 0.0316 µM
[14] = second compound 1 µM, first compound 0.1 µM
[15] = second compound 1 µM, first compound 0.316 µM
[16] = second compound 1 µM, first compound 1 µM
[17] = second compound 3.16 µM, first compound 0.0316 µM
[18] = second compound 3.16 µM, first compound 0.1 µM
[19] = second compound 3.16 µM, first compound 0.316 µM
[20] = second compound 3.16 µM, first compound 1 µM
[21] = second compound 10 µM, first compound 0.0316 µM
[22] = second compound 10 µM, first compound 0.1 µM
[23] = second compound 10 µM, first compound 0.316 µM
[24] = second compound 10 µM, first compound 1 µM
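Further: spheroids exposed to compound for seven days before viability readout.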

C[C@@H](NC(=O)c1ncnc(N)c1Cl)c1ncc(C(=O)Nc2cc(C(F)(F)F)c(Cl)cn2)s1 + C#Cc1c(F)ccc2cc(O)cc(-c3ncc4c(N5CC6CCC(C5)N6)nc(OCC56CCCN5CC(F)C6)nc4c3F)c12
active: viability, T/C (second compound 10 µM, first compound 10 µM) 8.17%
inactive: viability, T/C [1] 83.8% | viability, T/C [2] 116% | viability, T/C [3] 89% | viability, T/C [4] 67.8% | viability, T/C (second compound 0.0316 µM, first compound 3.16 µM) 47.2% | viability, T/C (second compound 0.0316 µM, first compound 10 µM) 35.4% | viability, T/C [5] 101% | viability, T/C [6] 118% | viability, T/C [7] 95.9% | viability, T/C [8] 73.2% | viability, T/C (second compound 0.1 µM, first compound 3.16 µM) 47.4% | viability, T/C (second compound 0.1 µM, first compound 10 µM) 36.6% | viability, T/C [9] 110% | viability, T/C [10] 119% | viability, T/C [11] 76.4% | viability, T/C [12] 62.4% | viability, T/C (second compound 0.316 µM, first compound 3.16 µM) 52% | viability, T/C (second compound 0.316 µM, first compound 10 µM) 32.8% | viability, T/C [13] 90.7% | viability, T/C [14] 93.8% | viability, T/C [15] 107% | viability, T/C [16] 76.7% | viability, T/C (second compound 1 µM, first compound 3.16 µM) 47.6% | viability, T/C (second compound 1 µM, first compound 10 µM) 34.5% | viability, T/C [17] 86.6% | viability, T/C [18] 92.8% | viability, T/C [19] 87% | viability, T/C [20] 75.2% | viability, T/C (second compound 3.16 µM, first compound 3.16 µM) 48.5% | viability, T/C (second compound 3.16 µM, first compound 10 µM) 28.4% | viability, T/C [21] 76.5% | viability, T/C [22] 61.5% | viability, T/C [23] 57.5% | viability, T/C [24] 33.2% | viability, T/C (second compound 10 µM, first compound 3.16 µM) 30.2%
2210 nM: IC50 (second compound 0.316 µM)
2690 nM: IC50 (second compound 1 µM)
2440 nM: IC50 (second compound 0.0316 µM)
2940 nM: IC50 (second compound 3.16 µM)
2710 nM: IC50 (second compound 0.1 µM)
398 nM: IC50 (second compound 10 µM)

O=C(c1ccc(F)c(F)c1Nc1ccc(I)cc1F)N1CC(O)([C@@H]2CCCCN2)C1 + C#Cc1c(F)ccc2cc(O)cc(-c3ncc4c(N5CC6CCC(C5)N6)nc(OCC56CCCN5CC(F)C6)nc4c3F)c12
< 3.16 nM: IC50 (second compound 0.0316 µM) | IC50 (second compound 0.1 µM) | IC50 (second compound 0.316 µM) | IC50 (second compound 1 µM) | IC50 (second compound 3.16 µM) | IC50 (second compound 10 µM)
active: viability, T/C [3] 7.05% | viability, T/C [4] 5.82% | viability, T/C [7] 7.41% | viability, T/C [8] 4.83% | viability, T/C [11] 5.32% | viability, T/C [12] 5.62% | viability, T/C [15] 5.57% | viability, T/C [16] 4.89% | viability, T/C [18] 8.92% | viability, T/C [19] 6.05% | viability, T/C [20] 4.36% | viability, T/C (second compound 10 µM, first compound 0.01 µM) 7.65% | viability, T/C [21] 3.23% | viability, T/C [22] 4.71% | viability, T/C [23] 2.14% | viability, T/C [24] 0.87%
inactive: viability, T/C (second compound 0.0316 µM, first compound 0.00316 µM) 47.9% | viability, T/C (second compound 0.0316 µM, first compound 0.01 µM) 37.5% | viability, T/C [1] 36.9% | viability, T/C [2] 15.6% | viability, T/C (second compound 0.1 µM, first compound 0.00316 µM) 44.8% | viability, T/C (second compound 0.1 µM, first compound 0.01 µM) 39.8% | viability, T/C [5] 29.3% | viability, T/C [6] 14.2% | viability, T/C (second compound 0.316 µM, first compound 0.00316 µM) 46% | viability, T/C (second compound 0.316 µM, first compound 0.01 µM) 32.6% | viability, T/C [9] 24.1% | viability, T/C [10] 13.3% | viability, T/C (second compound 1 µM, first compound 0.00316 µM) 38.6% | viability, T/C (second compound 1 µM, first compound 0.01 µM) 31.1% | viability, T/C [13] 21.9% | viability, T/C [14] 10.9% | viability, T/C (second compound 3.16 µM, first compound 0.00316 µM) 36.8% | viability, T/C (second compound 3.16 µM, first compound 0.01 µM) 22.8% | viability, T/C [17] 16% | viability, T/C (second compound 10 µM, first compound 0.00316 µM) 16.8%
